# Where two headings read alike, the source gives them in different places.
# How the values were obtained:
# [1] = tested on: Hs27 (human foreskin fibroblast); experiment: Cytotoxicity assay (MTT); assay type: cell-based; settings: 24 h treatment
# [2] = tested on: tachyzoites of the RH-GFP strain; experiment: Influence of compounds during Toxoplasma growth, Assay B (intracellular proliferation); assay type: cell-based, Toxoplasma gondii; settings: 3 h infection without compound, washed, 24 h with compound at IC50
# Procedure: (§1) Influence of Compounds during Toxoplasma Growth (Assay A and B): Hs27 cells were cultured on Lab-Tek™ 4-well Chamber Slides (Nunc, Thermo Fisher Scientific, Waltham, MA, USA) (5 × 10^4 cells/500 μL per well).
# Assay B—after 48 h, the medium was removed and then 5 × 10^5/500 µL/well tachyzoites of the RH-GFP strain were added to the cell monolayers, in parasite culture medium for 3 h.
# (§2) In both assays as the controls, Hs27 cells were infected, but not treated. After subsequent 24 h of incubation (Assay A and B), the slides were washed with sterile PBS, fixed with formaldehyde solution (252549, Sigma-Aldrich), 3.7% in PBS for 20 min and stained with DAPI for 10 min (1 mg/mL, ThermoFisher Scientific). Microscopic analysis of 100 cells in turn, comprised of counting the infected cell ratio and tachyzoites per each parasitophorous vacuoles of infected cell, was performed using a fluorescent microscope (Axio Scope.A1, Carl Zeiss, Jena, Germany) at a magnification ×1000. For image processing ZEISS ZEN Microscope Software version 3.1 was used. Three independent experiments on triplicate chamber slides using the same conditions for both assays were performed.
# [3] = tested on: tachyzoites of the RH-GFP strain; experiment: Influence of compounds during Toxoplasma growth, Assay A (invasion); assay type: cell-based, Toxoplasma gondii
# Procedure: as §1
# Assay A—after 48 h, the medium was removed and then 5 × 10^5/500 µL/well tachyzoites of the RH-GFP strain were added to the cell monolayers, in parasite culture medium with the selected compounds at IC50 concentration: 2b, 5b, 8b, 11b or 12b, for 3 h. Then, the cells were washed to remove extracellular parasites and parasite culture medium (without any compounds) was added for 24 h.
# as §2
# T. gondii RH-GFP [4] = experiment: microbe, parasite or virus in culture; assay type: cell-based, Toxoplasma gondii
# Procedure: Cell and parasite culture: The Hs27 (human foreskin fibroblast) (ATCC® CRL-1634™) (ATCC, Manassas, VA, USA) were culturing in DMEM (Dulbecco’s modified Eagle’s medium-ATCC® 30-2002™, ATCC) supplemented with 10% fetal bovine serum (fetal bovine serum, ATCC® 30-2020™, ATCC), 100 I.U./mL penicillin and 100 μg/mL streptomycin (penicillin-streptomycin solution ATCC® 30-2300™, ATCC). Cells were trypsinized (Trypsin-EDTA Solution ATCC® 30-2101™, ATCC) twice a week and seeded at a density of 1 × 10^6 per T25 cell culture flask and incubated in a 37 °C and 5% CO2 to achieve a confluent monolayer. The RH strain of Toxoplasma gondii (RH-GFP ATCC® 50940™, ATCC, highly virulent, haplogroup first, expression of green fluorescent protein) was maintained as tachyzoites, in parasite culture medium, which contains DMEM medium with 3% HIFBS (heat-inactivated FBS; 1 h in 56 °C). Infected tissue culture cells were incubated in a 37 °C and 5% CO2.
# After 72 h of incubation, the medium was removed and then 1 × 10^5 per well of tachyzoites of the RH strain were added to the cell monolayers, in DMEM without phenol red with 3% HIFBS. One hour later, the compounds and drugs dilutions in the DMEM without phenol red medium were added to the Hs27 cells with T. gondii. Concentration of the compounds below cytotoxic concentration (<CC30), sulfadiazine 0–10,000 μM and trimethoprim, pyrimethamine and atovaquone 0–200 μM. After a subsequent 96 h of incubation, the plates were read with covered lids, and both excitation (475 nm) and emission (509 nm) from the bottom using multimode microplate reader SpectraMax® i3. The results were expressed as mean fluorescent intensity (MFI) and transformed to the percentage of viability compared to untreated cells. Finally, the inhibitory concentrations for 50% inhibition of T. gondii proliferation (IC50) were calculated. All experiments were performed in triplicate.
# Graphs and statistical analyses: Statistical analyses and graphs were performed using GraphPad Prism version 9.0.0 for macOS (GraphPad Software, San Diego, CA, USA). […] Additionally, a relationship between cytotoxicity and antiparasitic activity were calculated as the ratio of the 30% cytotoxic concentration (CC30) to the 50% antiparasitic concentration (IC50) and presented as the selectivity index (SI).
# T. gondii RH-GFP [5] = experiment: Kinetics of T. gondii growth, Assay 1 (intracellular tachyzoites); assay type: cell-based, Toxoplasma gondii; settings: for effect on the kinetics of T. gondii growth: Assay 1 and Assay 2, Figure 12
# Procedure: (§3) Kinetics of T. gondii growth: The effect of 12b and drugs on kinetics of T. gondii RH-GFP growth was performed as follows: 1 × 10^4 per well of Hs27 cells were seeded on black, 96-well, tissue culture-treated plates with optical bottoms in DMEM cell culture medium.
# Assay 1—After 72 h of incubation, the medium was removed and then 1 × 10^5 per well of tachyzoites of the RH strain were added to the cell monolayers, in DMEM without phenol red with 3% HIFBS. One hour later, the compound 12b and drugs dilutions in the DMEM without phenol red medium were added to the Hs27 cells with T. gondii.
# The plates were read with covered lids, and both excitation (475 nm) and emission (509 nm) from the bottom using multimode microplate reader SpectraMax® i3. Additionally, fluorescence measurement was performed every 24 h. The plates were incubated at 37 °C with 5% of CO2. The results were expressed as mean fluorescent intensity (MFI). The initial value for 1 × 10^5 of T. gondii RH-GFP was 37,000 MFI (log 4.57). The lower limit of detection was 1000 MFI (log 3.0). Data presented as a logarithm of mean fluorescence intensity (logMFI) on concentration and time dependent curves. All experiments were performed in triplicate.
# T. gondii RH-GFP [6] = experiment: Kinetics of T. gondii growth, Assay 2 (pre-incubated extracellular tachyzoites); assay type: cell-based, Toxoplasma gondii; settings: 24 h after infection
# Procedure: as §3
# Assay 2—After 72 h of incubation, the medium was removed and DMEM without phenol red with 3% HIFBS, was added. In the new 96-well, tissue culture-treated plates 2 × 10^5 per well of tachyzoites of the RH strain were added and treated for 3, and 6 h with the compound 12b and drugs (diluted in the DMEM without phenol red medium) at 37 °C. Then tachyzoites were wash out three times in DPBS, resuspended in DMEM without phenol red medium with 3% HIFBS, and finally 1 × 10^5 per well of tachyzoites were added to the Hs27 cells.
# The plates were read with covered lids, and both excitation (475 nm) and emission (509 nm) from the bottom using multimode microplate reader SpectraMax® i3. Additionally, fluorescence measurement was performed every 24 h. The plates were incubated at 37 °C with 5% of CO2. The results were expressed as mean fluorescent intensity (MFI). The initial value for 1 × 10^5 of T. gondii RH-GFP was 37,000 MFI (log 4.57). The lower limit of detection was 1000 MFI (log 3.0). Data presented as a logarithm of mean fluorescence intensity (logMFI) on concentration and time dependent curves. […]
# T. gondii = settings: values from the earlier paper; ref [25]; cited from earlier work
# [7] = compared to non-treated host cells, compound at IC50 concentration, assay not named in abstract
# [8] = compound at IC50 present 3 h during infection, washed, 24 h free medium, vs non-treated
# [9] = Toxoplasma gondii, HS27, 96 h; read-out: IC50 (50% inhibition of T. gondii proliferation)
# [10] = ratio of CC30 (Hs27) to IC50 (T. gondii); 1b–12b and positive controls
# [11] = Toxoplasma gondii, HS27, 96 h, read-out: IC50 (50% inhibition of T. gondii proliferation)
Structure (SMILES),CC30 (cytotoxic concentration causing 30% of cells proliferation inhibition) [1],number of intravacuolar tachyzoites (Assay B) [2],percentage of infected cells (Assay B) [2],size of parasitophorous vacuole (Assay B) [2],"reduction in number of tachyzoites per vacuole [3, 7]","reduction in the percentage of infected host cells [3, 7]","number of tachyzoites per vacuole (Assay A) [3, 8]","percentage of infected cells (Assay A) [3, 8]",IC50 (T. gondii RH-GFP [4]; [9]),"SI (selectivity index, CC30/IC50) (T. gondii RH-GFP [4]; [10])","inhibition at 250 µM (T. gondii RH-GFP [5]; Toxoplasma gondii, Assay 1, 250 µM (95.50 µg/mL), first 24 h post-infection, maintained for the next 72 h)",reduction of the number of newly formed parasites in Hs27 host cells (T. gondii RH-GFP [6]; 3 h pre-incubation of tachyzoites),reduction of the number of newly formed parasites in Hs27 host cells (T. gondii RH-GFP [6]; 6 h pre-incubation of tachyzoites),effect on the kinetics of T. gondii growth (T. gondii RH-GFP [5]),IC50 (T. gondii RH-GFP [4]; [11]),IC50 (50% inhibition of T. gondii proliferation) (T. gondii)
Cc1nc[nH]c1-c1nnc(Nc2ccc(I)cc2)s1 [12b],98.18 µg/mL,significant reduction,still the same,significant reduction,93%,44%,significant reductions,significant reductions,4.7 µg/mL,20.89,97%,80%,89%,,,
"O=C1C(O)=C([C@H]2CC[C@H](c3ccc(Cl)cc3)CC2)C(=O)c2ccccc21 [Atovaquone (ATO), Atovaquone, reference compound]",54.26 µg/mL,,,,,,,,0.24 µg/mL,227.56,,,,only moderately slow down the proliferation of tachyzoites,,
"CCc1nc(N)nc(N)c1-c1ccc(Cl)cc1 [Pyrimethamine (PYR), Pyrimethamine, reference compound]",45.26 µg/mL,,,,,,,,,15.85,,,,only moderately slow down the proliferation of tachyzoites,2.86 µg/mL,
"Nc1ccc(S(=O)(=O)Nc2ncccn2)cc1 [Sulfadiazine (SUL), Sulfadiazine, reference compound]",2230.61 µg/mL,,,,,,,,,1.78,,,,only moderately slow down the proliferation of tachyzoites,1250 µg/mL,2721.45 µg/mL
"COc1cc(Cc2cnc(N)nc2N)cc(OC)c1OC [Trimethoprim (TRI), Trimethoprim, reference compound]",17.78 µg/mL,,,,,,,,,1.20,,,,only moderately slow down the proliferation of tachyzoites,14.8 µg/mL,12.13 µg/mL
